The NIST ThermoML archive (doi:10.1021/je800110r)
Numbers after ± are expanded uncertainties.

Settings: 293.15 K, Liquid, Vibrating tube method

CCCCCCCCCC [decane]
Settings | mass density [kg/m3]
14791 kPa | 740.7 ± 2
14807 kPa | 740.7 ± 2
14821 kPa | 740.7 ± 2
14833 kPa | 740.8 ± 2
14847 kPa | 740.7 ± 2
14859 kPa | 740.7 ± 2
14877 kPa | 740.9 ± 2
14893 kPa | 740.7 ± 2
14910 kPa | 740.8 ± 2
14926 kPa | 740.8 ± 2
14943 kPa | 740.9 ± 2
14959 kPa | 740.8 ± 2
14975 kPa | 740.9 ± 2
14992 kPa | 740.9 ± 2
15008 kPa | 740.8 ± 2
15023 kPa | 740.8 ± 2
15039 kPa | 740.9 ± 2
15050 kPa | 740.9 ± 2
15066 kPa | 740.9 ± 2
15087 kPa | 740.9 ± 2
15102 kPa | 740.9 ± 2
15115 kPa | 741 ± 2
15129 kPa | 740.8 ± 2
15143 kPa | 741 ± 2
15156 kPa | 740.9 ± 2
15175 kPa | 741 ± 2
15192 kPa | 741 ± 2
15209 kPa | 740.9 ± 2
15224 kPa | 741 ± 2
15236 kPa | 741 ± 2
15251 kPa | 741.2 ± 2
15270 kPa | 741.1 ± 2
15288 kPa | 741.1 ± 2
15305 kPa | 741.1 ± 2
15317 kPa | 741.1 ± 2
15339 kPa | 741.1 ± 2
15352 kPa | 741 ± 2
15365 kPa | 741.1 ± 2
15382 kPa | 741.1 ± 2
15393 kPa | 741.1 ± 2
15408 kPa | 741.2 ± 2
15428 kPa | 741.1 ± 2
15443 kPa | 741.2 ± 2
15454 kPa | 741 ± 2
15470 kPa | 741.2 ± 2
15485 kPa | 741.2 ± 2
15503 kPa | 741.2 ± 2
15519 kPa | 741.2 ± 2
15539 kPa | 741.2 ± 2
15556 kPa | 741.1 ± 2
15572 kPa | 741.2 ± 2
15588 kPa | 741.1 ± 2
15604 kPa | 741.4 ± 2
15622 kPa | 741.2 ± 2
15644 kPa | 741.2 ± 2
15658 kPa | 741.2 ± 2
15676 kPa | 741.3 ± 2
15694 kPa | 741.4 ± 2
15710 kPa | 741.3 ± 2
15722 kPa | 741.3 ± 2
15735 kPa | 741.3 ± 2
15751 kPa | 741.4 ± 2
15769 kPa | 741.4 ± 2
15792 kPa | 741.3 ± 2
15809 kPa | 741.5 ± 2
15827 kPa | 741.3 ± 2
15843 kPa | 741.3 ± 2
15857 kPa | 741.5 ± 2
15872 kPa | 741.5 ± 2
15888 kPa | 741.4 ± 2
15909 kPa | 741.5 ± 2
15925 kPa | 741.5 ± 2
15942 kPa | 741.5 ± 2
15959 kPa | 741.5 ± 2
15974 kPa | 741.5 ± 2
15989 kPa | 741.5 ± 2
16007 kPa | 741.6 ± 2
16024 kPa | 741.5 ± 2
16039 kPa | 741.6 ± 2
16056 kPa | 741.5 ± 2
16073 kPa | 741.6 ± 2
16093 kPa | 741.6 ± 2
16108 kPa | 741.6 ± 2
16128 kPa | 741.6 ± 2
16142 kPa | 741.6 ± 2
16167 kPa | 741.7 ± 2
16183 kPa | 741.8 ± 2
16198 kPa | 741.7 ± 2
16215 kPa | 741.7 ± 2
16233 kPa | 741.7 ± 2
16251 kPa | 741.8 ± 2
16267 kPa | 741.8 ± 2
16282 kPa | 741.7 ± 2
16298 kPa | 741.7 ± 2
16314 kPa | 741.7 ± 2
16332 kPa | 741.6 ± 2
16345 kPa | 741.8 ± 2
16369 kPa | 741.8 ± 2
16390 kPa | 741.8 ± 2
16405 kPa | 741.8 ± 2
16426 kPa | 741.8 ± 2
16442 kPa | 741.9 ± 2
16464 kPa | 741.8 ± 2
16484 kPa | 741.9 ± 2
16503 kPa | 741.9 ± 2
16517 kPa | 741.9 ± 2
16533 kPa | 741.9 ± 2
16557 kPa | 741.9 ± 2
16569 kPa | 741.9 ± 2
16584 kPa | 741.8 ± 2
16597 kPa | 741.9 ± 2
16615 kPa | 741.9 ± 2
16628 kPa | 742 ± 2
16646 kPa | 742 ± 2
16662 kPa | 742.1 ± 2
16681 kPa | 742 ± 2
16694 kPa | 742 ± 2
16705 kPa | 742.1 ± 2
16717 kPa | 742 ± 2
16728 kPa | 742 ± 2
16745 kPa | 742.2 ± 2
16761 kPa | 742 ± 2
16772 kPa | 742.1 ± 2
16786 kPa | 742 ± 2
16800 kPa | 742 ± 2
16814 kPa | 742 ± 2
16828 kPa | 742.2 ± 2
16842 kPa | 742 ± 2
16860 kPa | 742.1 ± 2
16874 kPa | 742.1 ± 2
16892 kPa | 742.1 ± 2
16905 kPa | 742.1 ± 2
16923 kPa | 742.2 ± 2
16935 kPa | 742.1 ± 2
16956 kPa | 742.1 ± 2
16972 kPa | 742.3 ± 2
16986 kPa | 742.2 ± 2
